# Entries after “also recorded” stand apart in the source; their conditions may differ.
# Columns and labels:
# [1] = Solubility of gabapentin in anhydrous extraction solvents; type: physicochemical
# Excerpt: Thus, the solution of gabapentin in cresol after extraction may be anhydrified, for example, by distillation so as to crystallize the undesired residual salts leaving the gabapentin itself in solution. Said solution of gabapentin in cresol obtained from the removal of the salts by filtration and/or by contro-extraction with water has a chloride content of a few tens of ppm.
# The same technique cannot be applied to the corresponding solution in n-butanol of the prior art, since the solubility of gabapentin in the anhydrous solvent is very low; as a result the butanolic solution of gabapentin extraction from the Hofmann end solution, when subjected to anhydrification reaction, leads to the co-precipitation of gabapentin and of these same salts, thus, with no advantage from the point of view of product purity.
# [2] = as stated for U.S. Pat. No. 6,518,456; cited from earlier work
smiles,measurement,setting,value
"NCC1(CC(=O)O)CCCCC1 [gabapentin, 1-(aminomethyl)-cyclohexaneacetic acid]",solubility,[1]; in anhydrous cresol,about 20%
same,solubility,[1]; in anhydrous n-butanol,virtually zero; also recorded: very low
same,isoelectric point (pH),[2],7.2 pH
